Measurements as given in ChEMBL document CHEMBL1201862, “PubChem BioAssay data set” (2004).
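Briefly, cells in 96-well plates were exposed to five compound concentrations for 48 h, and endpoints were estimated by linear interpolation. GI50 = concentration required for 50% inhibition of growth.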 Active and inactive are the calls of the source. Cut-off read from the data, not from the text of the source: active = GI50 up to about 1.1 µM and inactive = higher. Where a SMILES comes first, the peptide text is derived from it. [ ]: non-standard residue; d: D form. The star is where a group is joined. Bn2Val = CC(C)[C@@H](C(=O)*)N(Cc1ccccc1)Cc1ccccc1; NH(4-F-benzyl) = Fc1ccc(CN*)cc1; NMeV = CN[C@H](C(=O)O)C(C)C; dNMeA = CN[C@H](C)C(=O)O

Legend:
Experiment in all cases: DTP human tumour cell line panel, 48 h
A498 = tested on: A498
A549 = tested on: A549
HT-29 = tested on: HT-29
LOX IMVI = tested on: LOX IMVI
MCF7 = tested on: MCF7
MDA-MB-231 = tested on: MDA-MB-231
MDA-MB-435 = tested on: MDA-MB-435
NCI-H460 = tested on: NCI-H460
OVCAR-3 = tested on: OVCAR-3
OVCAR-8 = tested on: OVCAR-8
PC-3 = tested on: PC-3
RXF 393 = tested on: RXF 393
SF-539 = tested on: SF-539
SK-MEL-28 = tested on: SK-MEL-28
SK-MEL-5 = tested on: SK-MEL-5
SK-OV-3 = tested on: SK-OV-3
SR = tested on: SR
T47D = tested on: T47D
TK-10 = tested on: TK-10
UACC-62 = tested on: UACC-62

Measured: GI50

CCn1c2c(n(CC)c1=S)-c1c(n(CC)c(=S)n1CC)SSSS2
inactive: A498 37.5 µM | A549 36.7 µM | HT-29 11.7 µM | LOX IMVI 9.79 µM | MCF7 16 µM | MDA-MB-231 2.18 µM | MDA-MB-435 13.3 µM | NCI-H460 53.7 µM | OVCAR-3 7.23 µM | OVCAR-8 8.77 µM | PC-3 > 10 µM | RXF 393 1.36 µM | SF-539 12.2 µM | SK-MEL-28 7.31 µM | SK-MEL-5 27 µM | SK-OV-3 > 67.3 µM | SR 1.69 µM | T47D 1.63 µM | TK-10 15.2 µM | UACC-62 10.7 µM

O=C1N[C@H]2C(=O)c3c(Cl)sc(Cl)c3[C@H]2O1
inactive: A498 24.1 µM | A549 19.5 µM | HT-29 2.46 µM | LOX IMVI 2.7 µM | MCF7 16.7 µM | MDA-MB-231 14.1 µM | MDA-MB-435 4.81 µM | NCI-H460 18.1 µM | OVCAR-3 1.92 µM | OVCAR-8 2.79 µM | PC-3 14.2 µM | RXF 393 3.42 µM | SF-539 5.85 µM | SK-MEL-28 6.64 µM | SK-MEL-5 18.1 µM | SK-OV-3 15.5 µM | SR 2.56 µM | T47D 11.6 µM | TK-10 29.2 µM | UACC-62 13.3 µM

COC(=O)c1c(C)cccc1C1CN=NC12Cc1ccccc1C2=O (stereo not given)
inactive: A498 98.6 µM | A549 > 82.6 µM | HT-29 > 100 µM | LOX IMVI 31.2 µM | MCF7 2.46 µM | MDA-MB-231 45.7 µM | MDA-MB-435 > 82 µM | NCI-H460 > 75.9 µM | OVCAR-3 15.7 µM | OVCAR-8 > 100 µM | PC-3 78.5 µM | RXF 393 > 100 µM | SF-539 > 100 µM | SK-MEL-28 > 71.1 µM | SK-MEL-5 37.4 µM | SK-OV-3 > 100 µM | SR 47.2 µM | T47D 38.1 µM | TK-10 > 100 µM | UACC-62 74.6 µM

CC1=NN=C(C)C1/N=N/c1ccc2[nH]c(C)nc2c1
inactive: A498 8.39 µM | A549 27.4 µM | HT-29 16 µM | LOX IMVI 9.1 µM | MCF7 28.7 µM | MDA-MB-231 28.6 µM | MDA-MB-435 16.2 µM | NCI-H460 11 µM | OVCAR-3 13.4 µM | OVCAR-8 15.9 µM | PC-3 27.7 µM | RXF 393 5.16 µM | SF-539 26.9 µM | SK-MEL-28 35.6 µM | SK-MEL-5 18.2 µM | SK-OV-3 5.27 µM | SR 5.41 µM | T47D 5.11 µM | TK-10 14.1 µM | UACC-62 14.9 µM

O=C1c2c(Cl)c(Cl)c(Cl)c(Cl)c2C(=O)N1CCN(c1c(Cl)ssc1=O)c1c(Cl)ssc1=O
inactive: A498 > 100 µM | A549 > 100 µM | HT-29 19.5 µM | LOX IMVI 21.9 µM | MCF7 19.6 µM | MDA-MB-231 36.1 µM | MDA-MB-435 19.8 µM | NCI-H460 32.1 µM | OVCAR-3 18.7 µM | OVCAR-8 21.7 µM | PC-3 22.9 µM | RXF 393 16.4 µM | SF-539 19.1 µM | SK-MEL-28 58.3 µM | SK-MEL-5 > 100 µM | SK-OV-3 > 100 µM | SR 20 µM | T47D 17.1 µM | TK-10 18.7 µM | UACC-62 19.3 µM

CC1OC(OC2C(CO)OC(O[C@H]3CC[C@@]4(C)C(=CC[C@H]5[C@@H]6C[C@@H]7O[C@](O)(CC[C@H](C)COC8OC(CO)C(O)C(O)C8O)[C@@H](C)[C@@H]7[C@@]6(C)CC[C@@H]54)C3)C(OC3OC(C)C(O)C(O)C3O)C2O)C(O)C(O)C1O (stereo not given in full)
inactive: A498 26.7 µM | A549 2.35 µM | HT-29 11.9 µM | LOX IMVI 2.17 µM | MCF7 7.8 µM | MDA-MB-231 8.55 µM | MDA-MB-435 2.07 µM | NCI-H460 4.81 µM | OVCAR-3 8.2 µM | OVCAR-8 4.06 µM | PC-3 4.48 µM | RXF 393 5.11 µM | SF-539 2.82 µM | SK-MEL-28 2.94 µM | SK-MEL-5 7.1 µM | SK-OV-3 2.91 µM | SR > 100 µM | T47D 3.51 µM | TK-10 > 73.3 µM | UACC-62 5.42 µM

O=C(O)c1cccc(S(=O)(=O)NN2C(=O)CSC2c2ccccc2)c1 (stereo not given)
inactive: A498 > 100 µM | A549 > 100 µM | HT-29 > 100 µM | LOX IMVI > 100 µM | MCF7 > 100 µM | MDA-MB-231 > 100 µM | MDA-MB-435 > 100 µM | NCI-H460 > 100 µM | OVCAR-3 > 100 µM | OVCAR-8 > 100 µM | PC-3 > 100 µM | RXF 393 > 100 µM | SF-539 > 100 µM | SK-MEL-28 > 100 µM | SK-MEL-5 > 100 µM | SK-OV-3 > 100 µM | SR 32.9 µM | T47D > 100 µM | TK-10 > 100 µM | UACC-62 > 100 µM

CC(C)[C@H](NC(=O)[C@H](C(C)C)N(Cc1ccccc1)Cc1ccccc1)C(=O)N(C)[C@H](C(=O)N1CCC[C@H]1C(=O)N(C)[C@H](C)C(=O)NCc1ccc(F)cc1)C(C)C (Bn2Val-V[NMeV]P[dNMeA]-{NH(4-F-benzyl)})
inactive: A498 2.42 µM | A549 3.3 µM | HT-29 1.95 µM | LOX IMVI 1.85 µM | MCF7 2.72 µM | MDA-MB-231 3.55 µM | MDA-MB-435 3.67 µM | NCI-H460 4 µM | OVCAR-3 2.88 µM | OVCAR-8 4.01 µM | PC-3 3.18 µM | RXF 393 2.34 µM | SF-539 2.71 µM | SK-MEL-28 7.29 µM | SK-MEL-5 2.22 µM | SK-OV-3 5.35 µM | SR 2.14 µM | T47D 3.82 µM | TK-10 5.48 µM | UACC-62 2.96 µM
